Experimental data published in patent publication US20100035932A1, “NOVEL FORMYL PEPTIDE RECEPTOR LIKE 1 AGONISTS THAT INDUCE MACROPHAGE TUMOR NECROSIS FACTOR ALPHA AND COMPUTATIONAL STRUCTURE-ACTIVITY RELATIONSHIP ANALYSIS OF THEREOF” (priority 2008, published 2010).

What was measured:
J774.A1 macrophages [1] = test: TNF-α production in J774.A1 macrophages (ELISA); format: cell-based, murine; conditions: for fold induction at 50 µM: Mus musculus, J774.A1, 24 h, relative fold of activation compared to vehicle (DMSO) control for 50 μM compound, N.A. = no activity was observed, read-out: TNF-α production
human neutrophils = test: Ca2+ mobilization in human neutrophils (FLIPR Calcium 3); conditions: Neutrophil, read-out: [Ca2+]i EC50
J774.A1 macrophages [2] = test: cells; conditions: Mus musculus, J774.A1, read-out: Ca2+ Mobilization EC50, Murine Mφ

Compound | EC50 (human neutrophils) | fold induction at 50 µM (J774.A1 macrophages [1]) | TNF-α production, primary screening of agonists AG 1-26 (J774.A1 macrophages [1]; murine J774.A1 macrophages) | Determined class of macrophage TNF-α inducing activity (J774.A1 macrophages [1]; experimentally determined class) | EC50 (J774.A1 macrophages [2])
CN(C)c1ccc(/C=N\NC(=O)c2ccc([N+](=O)[O-])cc2)cc1 [Compound 4] | 9 µM | 20 to 25 | – | – | –
O=C(N/N=C/c1ccc(-c2cccc(Cl)c2Cl)o1)c1ccccc1 [Compound 5] | 2.3 µM | 7 to 10 | – | – | –
O=C(N/N=C/c1ccc(-c2ccc(Cl)c(Cl)c2)o1)c1ccc2c(c1)OCO2 [Compound 8] | 11.9 µM | < 5 | – | – | –
Cc1ccc(C(=O)N/N=C/c2ccc(-c3cc(Cl)c(Cl)cc3Cl)o2)cn1 [Compound 10] | 32 µM | < 5 | – | – | –
O=C(N/N=C1\C(=O)N(CCc2ccccc2)c2ccccc21)c1ccc2c(c1)OCO2 [Compound 17] | 8.9 µM | < 2 | – | – | –
CCOc1cc(/C=N\NC(=O)c2ccc3c(c2)OCO3)cc(Br)c1O [Compound 18] | 12.2 µM | < 2 | – | – | –
CN(C)c1ccc(/C=N\NC(=O)c2ccccc2)cc1 [Compound 19] | 14.5 µM | < 2 | – | – | –
CCOc1cc(/C=N/NC(=O)c2ccc3c(c2)OCCO3)cc(Br)c1O [Compound 21] | 21.9 µM | < 2 | – | – | –
O=C(N/N=C/c1ccco1)c1ccc(Br)cc1O [Compound 35] | 22.7 µM | – | – | – | –
Cc1ccc(C(=O)N/N=C/c2ccc(C)o2)cc1 [Compound 36] | 25.5 µM | – | – | – | –
COc1ccc(/C=N/NC(=O)c2ccc3c(c2)OCO3)c(OC)c1 [Compound 38] | 28.1 µM | – | – | – | –
C[C@H](CCC(=O)O)C[C@H](C)C[C@H](C)C(=O)/C=C(\O)[C@H](C)C[C@H](C)C/C=C/[C@@H](C)[C@@H](O)[C@@H](C)[C@@H](O)C[C@@H]1CC[C@@](C)([C@H]2CC[C@@](C)([C@@H](C)O)O2)O1 [ionomycin, reference compound] | – | – | – | – | 0.58 ± 0.3 µM

Continued, in another order:

EC50 (human neutrophils) | Compound | fold induction at 50 µM (J774.A1 macrophages [1]) | TNF-α production, primary screening of agonists AG 1-26 (J774.A1 macrophages [1]; murine J774.A1 macrophages) | Determined class of macrophage TNF-α inducing activity (J774.A1 macrophages [1]; experimentally determined class) | EC50 (J774.A1 macrophages [2])
0.3 µM | O=C(N/N=C/c1ccc(-c2ccc([N+](=O)[O-])cc2Cl)o1)c1ccc2c(c1)OCO2 [Compound 3] | 30 to 40 | – | – | –
10 µM | O=C(N/N=C/c1ccc(-c2cc(Cl)ccc2Cl)o1)c1ccc([N+](=O)[O-])cc1 [Compound 7] | < 5 | – | – | –
15.8 µM | Cc1ccc(C(=O)N/N=C/c2ccc(-c3cccc(C(F)(F)F)c3)o2)cn1 [Compound 9] | < 5 | induced modest levels of TNF-α production | – | –
18.9 µM | O=C(N/N=C/c1cc(Br)cc(Br)c1OC(=O)c1cccc(F)c1)c1ccc2c(c1)OCO2 [Compound 20] | < 2 | – | – | –
26.8 µM | O=C(N/N=C/c1c(O)ccc2ccccc12)c1ccc2c(c1)OCO2 [Compound 37] | – | – | – | –
28.4 µM | O=C(N/N=C/c1ccco1)c1ccccc1 [Compound 39] | – | – | NA (inactive derivatives were placed in the nonactive group labeled “NA”) | –
